Reference: the CheMixHub ionic liquid set

Experiment: xn = mol fraction of the nth substance listed

CCCC[n+]1ccn(C)c1.F[B-](F)(F)F + CC(C)O
viscosity [mPa·s], 101 kPa
Conditions | 293.15 K | 298.15 K | 303.15 K | 308.15 K | 313.15 K | 318.15 K | 323.15 K
x1 = 0.0804 | 4.9 | 4.2 | 3.89 | 3.46 | 2.84 | 2.16 | 1.48
x1 = 0.1585 | 7.6 | 7 | 6.52 | 5.78 | 4.67 | 3.41 | 2.15
x1 = 0.2402 | 11.4 | 10.3 | 9.5 | 8.4 | 6.8 | 4.9 | 3.01
x1 = 0.3505 | 16 | 15 | 14 | 12.4 | 9.9 | 7.1 | 4.34
x1 = 0.4422 | 20.7 | 19.7 | 18.2 | 16 | 12.9 | 9.3 | 5.78
x1 = 0.5619 | 28.4 | 26.7 | 24.9 | 21.9 | 17.6 | 12.9 | 8.3
x1 = 0.6491 | 36.8 | 34.3 | 31.3 | 27.6 | 22.2 | 16.5 | 10.8
x1 = 0.7409 | 48.5 | 44.8 | 40 | 34.6 | 27.9 | 20.9 | 14.1
x1 = 0.8458 | 69 | 61.6 | 53.7 | 45.8 | 36.8 | 27.8 | 19.3
x1 = 0.9327 | 95 | 82 | 70 | 58.8 | 47.1 | 35.9 | 25.4
x1 = 1 | 125 | 105 | 88 | 72 | 57.7 | 44 | 31.6

CCCC[n+]1ccn(C)c1.F[B-](F)(F)F + CCC(C)=O
100 kPa, x1 = 1
Conditions | viscosity [mPa·s]
303.15 K | 85.4
313.15 K | 53.84
323.15 K | 36.27
333.15 K | 25.46

CC[n+]1ccn(C)c1.N#C[N-]C#N + CCC(C)O
viscosity [mPa·s], 100 kPa
Conditions | x1 = 0.1023 | x1 = 0.2005 | x1 = 0.3015 | x1 = 0.4018 | x1 = 0.5032 | x1 = 0.6026 | x1 = 0.7026 | x1 = 0.8032 | x1 = 0.9029 | x1 = 1
298.15 K | 3.05 | 3.17 | 3.48 | 3.86 | 4.53 | 5.4 | 6.7 | 8.3 | 10.3 | 13.1
303.15 K | 2.59 | 2.71 | 3.02 | 3.41 | 4.07 | 4.95 | 6.1 | 7.5 | 9.6 | 11.8
308.15 K | 2.25 | 2.37 | 2.68 | 3.06 | 3.72 | 4.63 | 5.6 | 7 | 8.9 | 10.9
313.15 K | 2.01 | 2.13 | 2.41 | 2.69 | 3.36 | 4.19 | 5.1 | 6.4 | 7.8 | 9
318.15 K | 1.83 | 1.95 | 2.26 | 2.54 | 3.06 | 3.79 | 4.59 | 5.8 | 6.9 | 8.1
323.15 K | 1.67 | 1.79 | 2.05 | 2.26 | 2.83 | 3.51 | 4.18 | 5 | 6.2 | 7.3

CCCCCCCCO + CCCCCCCC(=O)[O-].c1c[nH+]c[nH]1
Conditions | viscosity [mPa·s]
293.15 K, 101.3 kPa, x1 = 1 | 9.18
